The values that follow come from patent US20110319451A1, “5-Ht6 Receptor and Modulators Thereof for the Treatment of Insulin-Related Disorders” (priority 2008, published 2011).

The target of one data set is rat 5-HT6 receptor (Rattus norvegicus, UniProt P31388). Particulars: cited from earlier work.
The target in data set [1] is cloned human 5-HT6 subtype (Homo sapiens, UniProt P50406). Particulars: cited from earlier work.
Another data set has as its system DIO female rats. Particulars: cited from earlier work; for cumulative weekly food intake: DIO female rats; for weight-loss versus control: after 28 days of administration, DIO rats.
In the next data set the test system is female DIO rat model. As to conditions: cited from earlier work.
For data set [2] the following is noted: 30 mg/kg i.p., daily for 3 days, growing rats; cited from earlier work.
The target of another data set is 5-HT6 receptor (Homo sapiens, UniProt P50406). Particulars: cited from earlier work.
The test system of data set [3] is normal lean and DIO female rats. Particulars: cited from earlier work.
In another data set the test system is C57/Bl6 mice. The data set can be described thus: oral glucose tolerance test (oGTT) in C57/Bl6 mice. It is filed as in vivo, mouse. Particulars: 1, 3.3 or 10 mpk oral, 30 min before glucose bolus 3 gram/kg, FIG. 5. On the procedure: Thirty minutes later, a glucose bolus (3 gram/kg) was then delivered per orally. Plasma glucose levels were determined at indicated time points over a two hour period using blood (˜5 μl) collected from tail nick and a glucose meter. Glycemic excursion curve was graphed based on data from 6 mice and given in mean values +/−SEM (FIG. 5 upper left panel).

Data set [4] deals with C57bl/6 male mice. The experiment in a line: insulin release in response to a glucose bolus in mice. It is filed as in vivo, mouse. As to conditions: 10 mpk oral; 5, 10 and 20 minutes after glucose bolus 3 g/kg, FIG. 5. On the procedure:
C57bl/6 male mice (8 weeks of age) were fasted for 18 hours, and randomly assigned into eight groups with n=6 for each group. Mice were administered per orally with vehicle (20% HPCD) or with 10 mpk EMD 386088. After 30 minutes, a glucose bolus of 3 g/kg was administered orally. Blood was collected in heparinated blood collection tubes at 0 minute (no glucose bolus), 5 minutes, 10 minutes, and 20 minutes after glucose bolus. Plasma samples were obtained via centrifugation at 500×g for 20 minutes and assayed for insulin using an Ultra Sensitive Insulin ELISA kit (Crystal Chem. Inc., Downers Grove, Ill.).

For data set [5], the system named is C57bl/6 male mice. The data set can be described thus: plasma glucose levels (hypoglycemia) in fasted mice. Particulars: 10 mpk or 30 mpk oral, 0-120 minutes post-dosing, FIG. 7. The data set is classed as in vivo, mouse. On the procedure: Plasma glucose levels were determined at 0 minute (right before dosing), and 30, 60, 90, and 120 minutes post-dosing using blood (˜5 μl) collected from tail nick and a glucose meter. Glycemic changes were graphed based on data from 6 mice and given in mean values +/−SEM.

Data set [6] relates to db/db mutant diabetic mice. The experiment in a line: oGTT in diabetic db/db mice. As to conditions: 3.3, 10 or 30 mpk oral, glucose bolus 2 gram/kg, FIG. 8. It is filed as in vivo, mouse. On the procedure: Thirty minutes later, a glucose bolus (2 gram/kg) was then delivered per orally. Plasma glucose levels were determined at indicated time points over a two hour period using blood (˜5 μl) collected from tail nick and a glucose meter. Glycemic excursion curve was graphed based on data from 6 mice and given in mean values +/−SEM.

pKi: −log10 of the molar value.

rat 5-HT6 receptor, sequence (P31388 whole entry): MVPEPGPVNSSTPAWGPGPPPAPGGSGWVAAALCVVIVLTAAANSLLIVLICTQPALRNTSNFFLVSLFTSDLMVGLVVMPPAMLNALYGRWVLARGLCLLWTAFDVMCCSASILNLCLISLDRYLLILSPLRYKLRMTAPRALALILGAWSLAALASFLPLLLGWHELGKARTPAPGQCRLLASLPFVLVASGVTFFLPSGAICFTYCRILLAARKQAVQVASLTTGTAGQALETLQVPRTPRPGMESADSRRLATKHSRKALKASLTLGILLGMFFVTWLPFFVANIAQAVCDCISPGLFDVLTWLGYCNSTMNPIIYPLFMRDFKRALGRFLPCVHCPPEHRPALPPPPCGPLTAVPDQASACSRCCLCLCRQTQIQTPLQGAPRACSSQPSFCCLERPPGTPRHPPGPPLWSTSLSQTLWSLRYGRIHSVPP
5-HT6 receptor, sequence (P50406 whole entry): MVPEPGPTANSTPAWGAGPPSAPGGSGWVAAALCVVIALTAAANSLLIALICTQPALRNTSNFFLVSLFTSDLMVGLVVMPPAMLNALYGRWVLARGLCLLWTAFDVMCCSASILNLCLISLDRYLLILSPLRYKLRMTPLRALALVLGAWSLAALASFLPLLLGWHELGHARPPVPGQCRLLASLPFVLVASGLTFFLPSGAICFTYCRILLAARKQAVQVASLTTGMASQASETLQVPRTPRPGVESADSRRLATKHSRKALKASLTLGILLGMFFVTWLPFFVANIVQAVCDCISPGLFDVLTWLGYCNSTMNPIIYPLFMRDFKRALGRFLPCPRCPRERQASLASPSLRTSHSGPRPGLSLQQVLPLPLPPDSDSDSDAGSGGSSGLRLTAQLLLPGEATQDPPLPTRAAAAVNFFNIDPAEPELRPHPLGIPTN
cloned human 5-HT6 subtype, sequence (P50406 whole entry): as above

Regarding `CN(C)CCc1c[nH]c2ccc(NS(=O)(=O)c3ccc4c(Cl)cccc4c3)cc12` [Compound E-6837], on rat 5-HT6 receptor, the “functionality at rat 5-HT6 receptor” value is “partial agonist”. For the same compound, in data set [1], the “functionality at cloned human 5-HT6 subtype” value is “full agonist”. Besides, in the data set on DIO female rats, the “cumulative weekly food intake” value is “significantly decreased consumption during the first, second and third weeks of treatment”; the weight-loss versus control was 15.7%. In addition, the “body composition of weight-loss” value in the data set with DIO female rats (rat, in vivo) is on record as “selective reduction in body fat with no changes in either water or protein content”. Also, the “food intake and adiposity” value in the data set on female DIO rat model was “reduce food intake and adiposity”.

On to `CNc1cc(NS(=O)(=O)c2ccc(N)cc2)nc(NC)n1` [Ro 04-6790], for which, in [2], the body weight-gain entry was “significantly attenuated body weight-gain”.

The pKi is −log10 of the Ki, conventionally taken in molar units. Take `COc1cc(Cl)cc(C(C)Nc2cc(N3CCNCC3)ccc2S(C)(=O)=O)c1OC.Cl` (centres unmarked) [PRX-07034]: the pKi on 5-HT6 receptor was 8.40. For the same compound, in the data set on female DIO rat model, the “food intake and adiposity” value is “reduce food intake and adiposity”. Further, the food intake entry in [3] (acute studies, normal lean and DIO female rats) was “inhibited food intake”. Also, in [3] (rat, in vivo), the aversive effect result is given as “no aversive effect”.

`Cc1[nH]c2ccc(Cl)cc2c1C1=CCNCC1` [Compound A, 5-Chloro-2-methyl-3-(1,2,3,6-tetrahydro-pyridin-4-yl)-1H-indole]: the “glucose excursion in oGTT” value in the data set on C57/Bl6 mice is recorded as “improved glucose excursion in a dose-dependent fashion”. In addition, in the data set with C57bl/6 male mice [4], the “insulin release compared to vehicle” value was “increased insulin release”. The “hypoglycemia (plasma glucose levels) compared to control” value with C57bl/6 male mice [5] is reported as “did not cause hypoglycemia”. Also, the “plasma glucose concentration over time in oGTT compared to control” value in data set [6] is on record as “dose dependent decrease in plasma glucose concentration”.

As to `CC(C)CC(N(C)C)C1(c2ccc(Cl)cc2)CCC1` (centres unmarked) [sibutramine], in the data set with DIO female rats, the “cumulative weekly food intake” value is recorded as “significantly reduced food intake only during the first week” and the weight-loss versus control is 11.0%.
